Assay results as given in PubChem BioAssay (NCI).
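Following 48 hours of exposure in 96-well plates, responses at five concentrations were used to interpolate endpoints linearly. At the TGI there is no net growth.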

Experiments:
Assay in all cases: NCI tumour cell line growth inhibition, 48 h
[1] = system: RPMI-8226 leukemia
[2] = system: CAKI-1 renal
[3] = system: NCI-H226 lung
[4] = system: HCT-15 colon
[5] = system: NCI/ADR-RES ovarian
[6] = system: 786-0 renal
[7] = system: MALME-3M melanoma
[8] = system: SF-295 CNS
[9] = system: UO-31 renal
[10] = system: SF-539 CNS
[11] = system: K-562 leukemia
[12] = system: HCT-116 colon
[13] = system: SK-MEL-28 melanoma
[14] = system: SNB-19 CNS
[15] = system: HOP-62 NSCLC
[16] = system: HT29 colon
[17] = system: SW-620 colon
[18] = system: OVCAR-3 ovarian
[19] = system: SK-MEL-2 melanoma
[20] = system: SR leukemia
[21] = system: T-47D breast
[22] = system: OVCAR-5 ovarian
[23] = system: A498 renal
[24] = system: EKVX NSCLC
[25] = system: SK-OV-3 ovarian
[26] = system: DU-145 prostate
[27] = system: SN12C renal
[28] = system: MOLT-4 leukemia
[29] = system: A549 NSCLC
[30] = system: TK-10 renal
[31] = system: U251 CNS
[32] = system: MDA-N
[33] = system: KM12 colon
[34] = system: NCI-H522 lung
[35] = system: MDA-MB-231 breast
[36] = system: BT-549 breast
[37] = system: UACC-257 melanoma
[38] = system: ACHN renal
[39] = system: MDA-MB-435
[40] = system: MCF7 breast
[41] = system: OVCAR-4 ovarian
[42] = system: PC-3 prostate
[43] = system: CCRF-CEM leukemia
[44] = system: HS 578T breast
[45] = system: SK-MEL-5 melanoma
[46] = system: COLO 205 colon
[47] = system: M14 melanoma
[48] = system: LOX IMVI melanoma
[49] = system: OVCAR-8 ovarian
[50] = system: IGROV1 ovarian
[51] = system: HL-60(TB) leukemia
[52] = system: NCI-H460 lung
[53] = system: NCI-H23 lung
[54] = system: SNB-75 CNS
[55] = system: HOP-92 NSCLC
[56] = system: RXF 393 renal
[57] = system: UACC-62 melanoma
[58] = system: SF-268 CNS

C=C1CC[C@@H]2[C@](C)(COC(=O)CCC(=O)OC)CCC[C@@]2(C)[C@@H]1CCC1=CC(=O)OC1
TGI [1]: 34.2 µM
TGI [2]: 81.3 µM
TGI [3]: > 100 µM
TGI [4]: > 100 µM
TGI [5]: > 100 µM
TGI [6]: > 100 µM
TGI [7]: > 100 µM
TGI [8]: > 100 µM
TGI [9]: > 100 µM
TGI [10]: > 100 µM
TGI [11]: > 100 µM
TGI [12]: > 100 µM
TGI [13]: > 100 µM
TGI [14]: > 100 µM
TGI [15]: > 100 µM
TGI [16]: > 100 µM
TGI [17]: > 100 µM
TGI [18]: > 100 µM
TGI [19]: > 100 µM
TGI [20]: 51.4 µM
TGI [21]: 73 µM
TGI [22]: > 100 µM
TGI [23]: > 100 µM
TGI [24]: > 100 µM
TGI [25]: > 100 µM
TGI [26]: > 100 µM
TGI [27]: > 100 µM
TGI [28]: 47.7 µM
TGI [29]: > 100 µM
TGI [30]: > 100 µM
TGI [31]: > 100 µM
TGI [32]: > 100 µM
TGI [33]: > 100 µM
TGI [34]: > 100 µM
TGI [35]: > 100 µM
TGI [36]: > 100 µM
TGI [37]: > 100 µM
TGI [38]: > 100 µM
TGI [39]: > 100 µM
TGI [40]: > 100 µM
TGI [41]: > 100 µM
TGI [42]: > 100 µM
TGI [43]: 58.8 µM
TGI [44]: > 100 µM
TGI [45]: > 100 µM
TGI [46]: > 100 µM
TGI [47]: > 100 µM
TGI [48]: > 100 µM
TGI [49]: > 100 µM
TGI [50]: > 100 µM
TGI [51]: 51.2 µM
TGI [52]: > 100 µM
TGI [53]: > 100 µM

O=S(=O)(O)C(c1ccccc1)C(O)c1ccccc1 (centres undefined)
TGI [1]: > 100 µM
TGI [2]: > 100 µM
TGI [54]: > 100 µM
TGI [55]: > 100 µM
TGI [3]: > 100 µM
TGI [4]: > 100 µM
TGI [5]: > 100 µM
TGI [6]: > 100 µM
TGI [7]: > 100 µM
TGI [8]: > 100 µM
TGI [9]: > 100 µM
TGI [11]: > 100 µM
TGI [12]: > 100 µM
TGI [13]: > 100 µM
TGI [14]: > 100 µM
TGI [15]: > 100 µM
TGI [16]: > 100 µM
TGI [17]: > 100 µM
TGI [18]: > 100 µM
TGI [19]: > 100 µM
TGI [20]: > 100 µM
TGI [21]: > 100 µM
TGI [22]: > 100 µM
TGI [23]: > 100 µM
TGI [24]: > 100 µM
TGI [56]: > 100 µM
TGI [25]: > 100 µM
TGI [57]: > 100 µM
TGI [26]: > 100 µM
TGI [27]: > 100 µM
TGI [29]: > 100 µM
TGI [30]: > 100 µM
TGI [31]: > 100 µM
TGI [32]: > 100 µM
TGI [58]: > 100 µM
TGI [33]: > 100 µM
TGI [34]: > 100 µM
TGI [35]: > 100 µM
TGI [36]: > 100 µM
TGI [37]: > 100 µM
TGI [38]: > 100 µM
TGI [39]: > 100 µM
TGI [40]: > 100 µM
TGI [41]: > 100 µM
TGI [42]: > 100 µM
TGI [43]: > 100 µM
TGI [44]: > 100 µM
TGI [45]: > 100 µM
TGI [46]: > 100 µM
TGI [47]: > 100 µM
TGI [48]: > 100 µM
TGI [49]: > 100 µM
TGI [50]: > 100 µM
TGI [51]: > 100 µM
TGI [52]: > 100 µM
TGI [53]: > 100 µM
